In patent US20110003858A1, “MULTIMERIC HETEROCYCLIC COMPOUNDS USEFUL AS NEUTROPHIL ELASTASE INHIBITORS” (priority 2006, published 2011):

Target: T1, Human Neutrophil Elastase (HNE) (Homo sapiens, UniProt P08246)
T1 construct: Human Neutrophil Elastase (HNE) purified from serum; purchased Calbiochem 324681; host or cells: natural enzyme purified from human serum (so in the source)
T1 sequence (P08246 30-247 limits assumed): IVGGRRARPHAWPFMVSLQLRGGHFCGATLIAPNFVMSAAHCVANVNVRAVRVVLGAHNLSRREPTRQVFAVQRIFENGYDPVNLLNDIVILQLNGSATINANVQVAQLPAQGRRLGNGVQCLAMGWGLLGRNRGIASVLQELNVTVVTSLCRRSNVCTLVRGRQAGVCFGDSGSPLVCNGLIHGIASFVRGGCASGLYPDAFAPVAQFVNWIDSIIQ
Assay: Human Neutrophil Elastase Quenched-FRET Assay
Format: biochemical
Conditions: HNE 1.7 nM, substrate MeOSuc-AAPV-AMC 100 μM, pH 7.5; read-out: Inhibition of HNE IC50
Protocol: Human Neutrophil Elastase Quenched-FRET Assay
The assay uses Human Neutrophil Elastase (HNE) purified from serum (Calbiochem art. 324681; Ref. Baugh, R. J. et al., 1976, Biochemistry. 15, 836-841). HNE was stored in 50 mM sodium acetate (NaOAc), 200 mM sodium chloride (NaCl), pH 5.5 with added 30% glycerol at −20° C. The protease substrate used was Elastase Substrate V Fluorogenic, MeOSuc-AAPV-AMC (Calbiochem art. 324740; Ref. Castillo, M. J. et al., 1979, Anal. Biochem. 99, 53-64). The substrate was stored in dimethyl sulphoxide (DMSO) at −20° C. The assay additions were as follows: Test compounds and controls were added to black 96-well flat-bottom plates (Greiner 655076), 1 μL in 100% DMSO, followed by 30 μL HNE in assay buffer with 0.01% Triton (trade mark) X-100 detergent. The assay buffer constitution was: 100 mM Tris(hydroxymethyl)aminomethane (TRIS) (pH 7.5) and 500 mM NaCl. The enzyme and the compounds were incubated at room temperature for 15 minutes. Then 30 μl substrate in assay buffer was added. The assay was incubated for 30 minutes at room temperature. The concentrations of HNE enzyme and substrate during the incubation were 1.7 nM and 100 μM, respectively. […] Fluorescence was measured on a Wallac 1420 Victor 2 instrument at settings: Excitation 380 nm, Emission 460 nm. IC50 values were determined using Xlfit curve fitting using model 205.

Row | SMILES | IC50 [nM]
1 | Cc1c([S+]([O-])c2ccc(C#N)cc2)cc(C(=O)NCCOCCOCCNC(=O)c2cc([S+]([O-])c3ccc(C#N)cc3)c(C)n(-c3cccc(C(F)(F)F)c3)c2=O)c(=O)n1-c1cccc(C(F)(F)F)c1 (centres unmarked) [Example 1] | 0.61
2 | Cc1c(-c2ccnn2-c2ccc(C#N)cc2)cc(C(=O)NCC(O)CNC(=O)c2cc(-c3ccnn3-c3ccc(C#N)cc3)c(C)n(-c3cccc(C(F)(F)F)c3)c2=O)c(=O)n1-c1cccc(C(F)(F)F)c1 [Example 2, N,N′-(2-Hydroxypropane-1,3-diyl)bis(5-(1-(4-cyanophenyl)-1H-pyrazol-5-yl)-6-methyl-2-oxo-1-(3-(trifluoromethyl)phenyl)-1,2-dihydropyridine-3-carboxamide)] | 0.26
